# In patent US7531195B2, “Schisandrin B preparation” (priority 2005, dated 2009):
# Key:
# [1] = system: mitochondria of brain, heart, liver and skeletal muscle; experiment: Mitochondrial antioxidant components in tissues of young adult and middle-aged rats; type: in vivo, rat; details: 10 mg/kg/day x 15, range among tissues
# Method: (§1) Young adult (8-10 week-old) and middle-aged (12-14 month-old retired breeder) female Sprague-Dawley rats were maintained under a 12-h dark/light cycle at about 22° C. and allowed food and water ad libitum. Experimental protocols were approved by the Research Practice Committee at the Hong Kong University of Science & Technology, Hong Kong. Animals were randomly divided into groups, with 5 animals in each. In the treatment groups, rats were intragastrically administered with Sch B (dissolved/suspended in olive oil) at a daily dose of 10 mg/kg for 15 days. The daily dose is approximated to 1.14 mg/kg for humans after adjusting the inter-species difference in drug distribution in the body. Untreated control animals received olive oil only. Twenty-four hours after the last dosing, animals were sacrificed by decapitation and the whole brain, heart ventricular, liver and skeletal muscle (hind limb) tissues were excised and subjected to biochemical analysis. To investigate the effect of (−) Sch B on myocardial ischemia-reperfusion […] injury, rats were intragastrically administered with (−) Sch B at a daily dose of 10 mg/kg for 35 days. Untreated control animals received olive oil only. Twenty-four hours after the last dosing, hearts were isolated from pentobarbital-anesthetized animals and subjected to I-R experiment.
# Mitochondrial pellets were prepared from tissue homogenates by centrifugation at 800×g at 4° C. for 30 min, with purity being determined by measuring the relative specific activities of succinate dehydrogenase and lactate dehydrogenase (LDH) in the supernatant and mitochondrial pellet. Mitochondrial pellets were then resuspended in 1 ml of the respective homogenizing buffer used for various tissues and constituted the mitochondrial fractions. The protein concentration of mitochondrial fractions was determined using a Bio-Rad protein assay kit.
# Aliquots (200 μl) of mitochondrial fractions were used for measuring mitochondrial glutathione (GSH) and α-tocopherol (α-TOC) levels by an enzymatic method and HPLC method, respectively, using GSH and α-TOC as standards. Se-glutathione peroxidase (GPX) activity was measured. Mn-superoxide dismutase (SOD) activity was measured by monitoring the […] of cytochrome c caused by superoxide radicals generated from the xanthine oxidase-xanthine reaction.
# isolated heart = experiment: Myocardial I-R injury (LDH leakage) in young adult and middle-aged rats; type: in vivo, rat; details: 10 mg/kg/day x 35
# Method: as §1, with “experiment. […]” for “experiment.”
# H9c2 cells [2] = experiment: Menadione-induced toxicity (LDH) in H9c2 cells; type: cell-based, rat
# Method: (§2) H9c2 cells, a permanent cell line derived from cardiac myoblasts of rat embryo, have early been characterized as a suitable model of myocardial cells [Hescheler et al. 1991]. H9c2 cells were cultured as monolayers in Dulbecco's modified Eagle's medium (GIBCO BRL) supplemented with 10% (v/v) fetal bovine serum. The medium contained glucose (4.5 g/L) and glutamine (4.5 mM), supplemented with NaHCO3 (17 mM), penicillin (100 IU/ml), and streptomycin (100 μg/ml). Cells were grown under an atmosphere of 5% CO2 in air at 37° C. The medium was replaced by fresh medium every 2 or 3 days. A stock of cells was grown in a 75 cm culture flask and split before confluence at a subcultivation ratio of 1:10. Cells used for experiments were seeded at a density of 3.75×10^4 cells/well on a 12-well culture plate, and the cells were grown for 24 h to about 80% confluence prior to drug treatment.
# (§3) Cultured H9c2 cells were treated with (−) Schisandrin B, (+) Schisandrin B or (±) Schisandrin B (dissolved in DMSO) at 6.25 μM (0.2% DMSO final concentration) for 16 h. Control cells were given the vehicle (i.e. DMSO) only. Immediately following the drug or vehicle pretreatment, the cells were challenged with menadione (dissolved in ethanol) at 12.5 μM (0.2% ethanol final concentration) for 4 h. The control cells were treated with the medium containing 0.2% ethanol only. After the menadione challenge, the medium was taken for the measurement of LDH activity, an biochemical index of cell injury.
# H9c2 cells [3] = experiment: Cellular GSH level in H9c2 cells with or without menadione challenge; type: cell-based, rat
# Method: as §2, §3
# The cells were washed twice with 0.5 ml cold phosphate-buffered saline (PBS), An aliquot (200 μl) of 3% sulfonsalicyclic acid was then added, and the mixture was incubate at 4° C. for 10 min. After centrifuging at 300 g for 15 min at 4° C., the supernatant was used for GSH measurement by an enzymatic method of Griffith (1980).
# [4] = MENADIONE 12.5 μM for 4 h, drug 6.25 μM for 16 h
# [5] = NON-MENADIONE, 6.25 μM for 16 h
smiles,measurement,setting,value
"COc1cc2c(c(OC)c1OC)-c1c(cc3c(c1OC)OCO3)CC(C)C(C)C2 (single isomer, unassigned; (-)) [(−) Sch B, (−) Schisandrin B]",extent of stimulation of mitochondrial GPX activity,[1],21-41%
same,extent of stimulation of mitochondrial GSH level,[1],21-29%
same,extent of stimulation of mitochondrial SOD activity,[1],19-34%
same,extent of stimulation of mitochondrial α-TOC level,[1],19-34%
same,degree of protection against myocardial I-R injury,isolated heart; middle-aged rats,36%
same,degree of protection against myocardial I-R injury,isolated heart; young adult rats,55%
same,LDH,H9c2 cells [2]; [4],20.6 ± 0.18 U/ml
same,"LDH, percent protection vs menadione control",H9c2 cells [2]; [4],(60%)
same,LDH,H9c2 cells [2]; [5],14.3 ± 0.29 U/ml
same,GSH Level,H9c2 cells [3]; [4],33.3 ± 1.75 nmol/mg protein
same,"GSH Level, percent increase vs menadione control",H9c2 cells [3]; [4],(81%)
same,GSH Level,H9c2 cells [3]; [5],64.0 ± 2.96 nmol/mg protein
same,"GSH Level, percent increase vs non-menadione control",H9c2 cells [3]; [5],(84%)
